In PubChem BioAssay AID613 (The Scripps Research Institute Molecular Screening Center, 2007) one finds EC50 data, which are given here for 26 compounds.

A word on the EC50: it is the concentration that produces a half-maximal response.

Calls of active or inactive are those of the source.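 Rule for the calls: active = EC50 at or below 10 micromolar; inactive = EC50 above 10 micromolar.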

Sequence of 5-hydroxytryptamine receptor 1A (Homo sapiens) (P08908 whole entry, looked up): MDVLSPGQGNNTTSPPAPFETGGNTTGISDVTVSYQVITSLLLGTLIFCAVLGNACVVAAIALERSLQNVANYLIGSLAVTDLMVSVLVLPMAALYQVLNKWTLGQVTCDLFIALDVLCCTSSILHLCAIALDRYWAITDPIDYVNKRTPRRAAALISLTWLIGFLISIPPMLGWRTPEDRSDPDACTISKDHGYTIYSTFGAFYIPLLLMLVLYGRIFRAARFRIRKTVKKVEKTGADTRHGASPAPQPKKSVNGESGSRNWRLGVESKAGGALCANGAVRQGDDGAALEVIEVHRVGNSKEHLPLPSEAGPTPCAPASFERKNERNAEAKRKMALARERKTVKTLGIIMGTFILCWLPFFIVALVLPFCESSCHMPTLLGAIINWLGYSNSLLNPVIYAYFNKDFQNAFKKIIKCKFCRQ

The test concerns the target 5-hydroxytryptamine receptor 1A (Homo sapiens) (UniProt P08908). As to the kind of experiment: human 5-HT1a agonist potency, dose response, cell-based, CHO, Ga15 NFAT-bla reporter (AID 613). The settings on record: CHO 5-HT1a Ga15 NFAT-bla reporter, agonist FRET.
Consider `Nc1nonc1/C(=N/O)N1CCCC1`, for which the EC50 was > 99 µM (inactive).

As for `CCCCCCc1cc2cc(C(=O)NC)c(=N)oc2cc1O`, the EC50 entry was “inactive”.

Consider `CCCCOc1ccc(C2C3CN(C(=O)OCC)CC=C3C(C#N)=C(N)C2(C#N)C#N)cc1OC` (stereo unspecified), for which the EC50 is > 99 µM (inactive).

With `CCCCCCc1cc2cc(-c3nnc(-c4ccccc4O)o3)c(=O)oc2cc1O`, the EC50 is > 99 µM (inactive).

As for `CN(C)c1ccc(C2C=C(c3ccc(Cl)cc3OC(F)F)Nc3ncnn32)cc1` (stereo unspecified), the EC50 is > 99 µM (inactive).

On to `N#C/C(=C(/O)COC(=O)Cc1c[nH]c2ccccc12)c1nc2ccccc2[nH]1`, for which the EC50 was > 99 µM (inactive).

For `COc1ccccc1N=c1oc2cc(O)ccc2cc1C(=O)NCC1CCCO1` (stereo unspecified), the EC50 entry was “inactive”.

On to `CCOC(=O)c1sc2c(c1C)C(c1cccs1)C1=C(CCCC1=O)N2` (stereo unspecified), for which the EC50 is > 33 µM (inactive).

In the case of `COCCOC(=O)C1=C(C)Nc2nc(C)nn2C1c1ccc(F)cc1` (stereo unspecified), the EC50 was > 99 µM (inactive).

Consider `NC(=O)c1cc2ccc(O)cc2oc1=Nc1ccccc1`, for which the EC50 result was “inactive”.

`Cc1ccc(N2C(=O)CC(N3CCN(C4CCc5ccccc5C4)CC3)C2=O)cc1` (stereo unspecified): the EC50 is > 99 µM (inactive).

Regarding `CCN(CC)c1ccc2cc(C(=O)Nc3ccccn3)c(=O)oc2c1`, the EC50 is > 99 µM (inactive).

With `Cc1cccc(N=c2oc3cc(O)ccc3cc2C(N)=O)c1`, the EC50 entry is “inactive”.

`CCSCCOC(=O)C1=C(C)NC(=O)NC1c1ccc2c(c1)OCO2` (stereo unspecified): the EC50 is > 99 µM (inactive).

Turning to `N#CC1=C(N)N(c2ccccc2)C(c2ccco2)C1(C#N)C#N` (stereo unspecified), the EC50 is > 99 µM (inactive).

Take `Cc1noc(NS(=O)(=O)c2ccc(N3CC(O)=C(c4ccccc4)C3=N)cc2)c1C`: the EC50 was > 99 µM (inactive).

As to `CN(C)CCCN1C(=O)C(=O)/C(=C(/O)c2ccc3c(c2)OCCO3)C1c1ccccn1` (stereo unspecified), the EC50 was > 99 µM (inactive).

On to `COc1ccccc1N=c1oc2cc(O)ccc2cc1C(N)=O`, for which the EC50 result is “inactive”.

With `C=CCOc1cccc(C2C(C(=O)c3ccco3)=C(O)C(=O)N2CCN(CC)CC)c1` (stereo unspecified), the EC50 was > 99 µM (inactive).

As for `CC(C)N1CC=C2C(C#N)=C(N)C(C#N)(C#N)C(c3ccccc3)C2C1` (stereo unspecified), the EC50 entry was “inactive”.

In the case of `COc1ccc(OC)c(N=c2oc3cc(O)ccc3cc2C(N)=O)c1`, the EC50 was > 99 µM (inactive).

As for `Cc1ccc(C2C3CN(C(C)C)CC=C3C(C#N)=C(N)C2(C#N)C#N)cc1` (stereo unspecified), the EC50 entry is “inactive”.

Regarding `COc1ccc(N=c2oc3cc(O)ccc3cc2C(=O)NCC2CCCO2)c(OC)c1` (stereo unspecified), the EC50 was > 99 µM (inactive).

As to `Cc1ccc(N=c2oc3cc(O)ccc3cc2C(N)=O)cc1`, the EC50 result is “inactive”.

For the compound `COc1ccc(N=c2oc3cc(O)ccc3cc2C(=O)NCC2CCCO2)cc1` (stereo unspecified), the EC50 was > 99 µM (inactive).

Take `NC(=O)c1cc2ccc(O)cc2oc1=NCc1ccccc1`: the EC50 result was “inactive”.
